Values quoted from earlier work, collected in EP3051247B1, “CHEMICAL CLEANING PROCEDURE FOR HEAT EXCHANGERS” (GD Energy Services S.a.r.l., priority 2013, dated 2015).

Settings: for pKa1: first acid dissociation step (AH3 → AH2^- + H^+; BH2 → BH^- + H^+); for pKa2: second acid dissociation step (AH2^- → AH^2- + H^+; BH^- → B^2- + H^+)

Row | pKa1 | pKa2 | pKa3 (third acid dissociation step (AH^2- → A^3- + H^+)) | SMILES
1 | pKa1 = 4.1 | pKa2 = 11.4 | – | O=C1O[C@H]([C@@H](O)CO)C(O)=C1O [Ascorbic acid]
2 | pKa1 = 3.15 | pKa2 = 4.77 | pKa3 = 6.40 | O=C(O)CC(O)(CC(=O)O)C(=O)O [Citric acid]
